“Also recorded” adds a separate entry of the source.
Key:
[1] = test system: RgSBP (RUMGNA_02698, solute binding protein); assay: Fluorescence spectroscopy of ligand binding to RgSBP; set-up: species or system R. gnavus ATCC 29149; settings: for change in fluorescence emission at 350 nm upon sequential additions of ligand: sequential additions of 10 μM ligand
Description: Ligand binding to RgSBP was investigated by measuring changes in the intrinsic protein fluorescence upon addition of 2,7-anhydro-Neu5Ac or Neu5Ac as potential ligands. (Andrew Bell with help from student in Gavin Thomas's Group,York). Due to the presence of […] in RgSBP, fluorescence changes were measured by exciting at 297 nm. Under these conditions the protein has a maximal emission at 331 nm. […] 2,7-Anhydro-Neu5Ac caused a 16% quench in the fluorescence of the protein at ligand saturation (FIG. 3A).
The binding of RgSBP to 2,7-anhydro-Neu5Ac or Neu5Ac was further investigated by measuring changes in fluorescence emission at 350 nm when RgSBP was excited at 297 nm upon sequential additions of 10 μM ligands.
All protein fluorescence experiments used a FluoroMax 3 fluorescence spectrometer with connecting water bath at 37° C. Because of the presence of 15 […] residues, the protein was excited at 297 nm with slit widths of 5 nm. […] Cumulative fluorescence changes from titration of the protein with ligand were plotted in GraphPad and fitted to a single rectangular hyperbola. The Kd values reported were averaged from three separate ligand titration experiments.
To determine the specificity of the predicted transporter, the gene encoding the predicted SBP was amplified by PCR from the R. gnavus ATCC 29149 genome, cloned into the pHISTEV expression vector, heterologously expressed in E. coli and the His6-tag recombinant protein purified by immobilised metal ion affinity chromatography (IMAC). Ligand binding to RgSBP was investigated by measuring changes in the intrinsic protein fluorescence upon addition of 2,7-anhydro-Neu5Ac or Neu5Ac as potential ligands. Due to the presence of 7 tryptophan residues in RgSBP, fluorescence changes were measured by exciting at 297 nm. Under these conditions the protein has a maximal emission at 331 nm. […] To confirm the novel specificity of 2,7-anhydro-Neu5Ac over Neu5Ac we followed sequential changes in fluorescence at 350 nm following additions of 10 μM of the two ligands. […] Conversely, when 2,7-anhydro-Neu5Ac is added first the quench is observed and additions of 10 μM Neu5Ac caused no further reduction or reverse in the intensity (FIG. 3d), indicating Neu5Ac is unable to displace 2,7-anhydro-Neu5Ac, further supporting the specificity of the interaction between RgSBP and 2,7-anhydro-Neu5Ac.

[2] = molecular target: RgSBP (RUMGNA_02698, solute binding protein); assay: Isothermal titration calorimetry (ITC) of RgSBP binding; set-up: species or system R. gnavus ATCC 29149; settings: 50 mM Tris-HCl pH 7.5; single-binding site model; triplicate
Description: Isothermal titration calorimetry (ITC) experiments were performed using the PEAQ-ITC system (Malvern, Malvern, UK) with a cell volume of 200 μl. Prior to titration, protein samples were exhaustively dialysed into 50 mM Tris-HCl pH 7.5. The ligand was dissolved in the dialysis buffer. The cell protein concentration was 100 μM and the syringe ligand concentration was 2 mM. Controls with titrant (sugar) injected into the buffer only were subtracted from the data. The analysis was performed using the Malvern software, using a single-binding site model. Experiments were carried out in triplicate.

[3] = test system: RgSBP; assay: Saturation transfer difference (STD) NMR with RgSBP; type: binding, R. gnavus ATCC 29149; settings: RgSBP 50 μM with 2,7-anhydro-Neu5Ac 0.5 mM and Neu5Ac 1 mM
Description: An amicon centrifuge filter unit with a 10 kDa MW cut-off was used to exchange the protein in 25 mM d19-2,2-bis (hydroxymethyl)-2,2′,2″-nitrilotriethanol pH* 7.4 (uncorrected for the deuterium isotope effect on the pH glass electrode) D2O buffer and 50 mM NaCl. 2,7-anhydro-Neu5Ac and Neu5Ac were dissolved in 25 mM d19-2,2-bis(hydroxymethyl)-2,2′,2″-nitrilotriethanol pH* 7.4, 50 mM NaCl. Characterization of ligand binding by Saturation Transfer Difference NMR Spectroscopy (Mayer, M. and Meyer, B. (1999) was performed on a Bruker Avance 800.23 MHz at 298 K. The on- and off-resonance spectra were acquired using a train of 50 ms Gaussian selective saturation pulses using a variable saturation time from 0.5 s to 4 s, for binding epitope mapping determination while only 0.5 s of saturation time for each selected frequency was used to perform the DEEP-STD NMR experiments (Monaco et al., 2017). The water signal was suppressed by using the excitation sculpting technique (Hwang et al., 1995), while the remaining protein resonances were filtered using a T2 filter of 40 ms. All the spectra were performed with a spectral width of 10 KHz and 32768 data points using 256 or 512 scans. This time due to the absence of a 3D structure it was impossible to derive the resonances for saturation of aliphatic and aromatic residues found in the binding site as required by the DEEP-STD NMR technique. […]

[4] = molecular target: RgNanA (RUMGNA_02692, sialic acid aldolase) (Mediterraneibacter gnavus, UniProt A7B555); assay: Sialic acid aldolase activity assay coupled to lactate dehydrogenase, RgNanA; settings: 10 mM sialic acid, 37° C., pH 7.0, A340 nm
RgNanA (RUMGNA_02692, sialic acid aldolase), sequence (A7B555 whole entry): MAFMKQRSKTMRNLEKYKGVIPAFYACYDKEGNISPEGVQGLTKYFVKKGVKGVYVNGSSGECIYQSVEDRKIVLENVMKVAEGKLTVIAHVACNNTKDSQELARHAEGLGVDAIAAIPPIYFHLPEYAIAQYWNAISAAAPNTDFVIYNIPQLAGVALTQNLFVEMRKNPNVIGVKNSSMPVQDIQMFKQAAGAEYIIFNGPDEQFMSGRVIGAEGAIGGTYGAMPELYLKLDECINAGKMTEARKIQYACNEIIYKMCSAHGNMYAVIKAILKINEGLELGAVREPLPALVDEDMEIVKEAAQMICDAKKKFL
Description: Aldolase cleavage was measured by monitoring the decrease in absorbance at 340 nm (A340 nm) as NADH is converted to NAD by lactate dehydrogenase in a coupled reaction where pyruvate is released from sialic acid by the aldolase. Reactions were performed in a 100 μl volume with final concentrations of 150 μM NADH (Sigma, St Louis, USA), 0.5 U LDH (Sigma, St Louis, USA), 10 mM sialic acid (Neu5Ac or 2,7-anhydro-Neu5Ac) and 1.5 μg purified RgNanA or EcNanA (E. coli aldolase CAS: 9027-60-5, Carbosynth, UK) in 50 mM Na-phosphate buffer (pH 7.0). The reactions were performed at 37° C. and monitored using FLUOstar OPTIMA (BMG LABTECH). For kinetics experiments, the sialic acid concentration was varied at 20, 10, 5, 4, 2, 1, 0.4, 0.2, 0.1 mM and the initial rate of reaction determined for each concentration in triplicate before analysis was performed by fitting the data to a Michaelis-Menten using Graph Pad Prism (V 5.03).
The substrate specificity of RgNanA was determined using a coupled activity assay where pyruvate released during the conversion of sialic acid to ManNAc is converted to lactate by a lactate dehydrogenase and the subsequent loss of absorbance at 340 nm measured as NADH is converted to NAD^+. A commercially available E. coli sialic acid aldolase (EcNanA) was included as a control and enzymes were tested for activity against 2,7-anhydro-Neu5Ac and Neu5Ac. […] The kinetic parameters of RgNanA were determined by calculating the initial rate of reaction with increasing Neu5Ac concentrations. A Michaelis-Menten curve was fitted to the data and kinetic parameters determined (FIG. 7b).

| Compound | quench in the fluorescence of the protein ([1]; RgSBP excited at 297 nm, 10 μM or 20 μM ligand, ligand saturation) [%] | change in fluorescence emission at 350 nm upon sequential additions of ligand ([1]; excited at 297 nm) | Kd ([1]; titration of 0.5 μM RgSBP, triplicate, hyperbolic fit) [nM] | Kd [2] [nM] | transfer of magnetization as saturation from the protein to the ligand [3] | aldolase activity against substrate [4] | change in the fluorescence emission spectra of RgSBP ([1]; excited at 297 nm, ligand at 10 μM, 20 μM or 70 μM) | Kd (ITC) [2] |
| --- | --- | --- | --- | --- | --- | --- | --- | --- |
| CC(=O)N[C@H]1C2OC(C(=O)O)(C[C@@H]1O)O[C@@H]2[C@H](O)CO (some centres unmarked) [2,7-anhydro-Neu5Ac] | ~16 | a quench is observed; also recorded: large decrease in intensity | 1350 | 2420 ± 270 | clearly observed | neither enzyme showed activity | – | – |
| CC(=O)N[C@H]1[C@H]([C@H](O)[C@H](O)CO)OC(O)(C(=O)O)C[C@@H]1O (some centres unmarked) [Neu5Ac, N-acetylneuraminic acid] | – | no change in fluorescence is observed; also recorded: no change in intensity was observed | – | – | complete absence of saturation transfer | showed activity | did not lead to any change in the spectra | No binding was observed; also recorded: does not bind |
